# Measurements taken from patent US20080233151A1, “Use of non-antibacterial tetracycline analogs and formulations thereof for the treatment of bacterial exotoxins” (priority 2002, published 2008).
# Test system: bacteria
# Assay: Non-antimicrobial dose and plasma antimicrobial threshold of antibacterial tetracyclines
# Procedure: For example, tetracycline compounds that have significant antibacterial activity may be administered in an amount which is 10-80% of the antibacterial amount. More preferably, the antibacterial tetracycline compound is administered in an amount which is 40-70% of the antibacterial amount.
# Examples of antibacterial tetracyclines administered in a non-antibacterial amount are depicted in Table 1, as follows: […]
Structure (SMILES),Plasma Antimicrobial Threshold Level,Maximum Non-Antimicrobial Dose (twice daily),Maximum Non-Antimicrobial Dose (once daily)
C[C@H]1c2cccc(O)c2C(=O)C2=C(O)[C@]3(O)C(=O)C(C(N)=O)=C(O)[C@@H](N(C)C)[C@@H]3[C@@H](O)[C@@H]21 [Doxycycline],1.0 µg/mL,20 mg b.i.d,
CN(C)c1ccc(O)c2c1C[C@H]1C[C@H]3[C@H](N(C)C)C(O)=C(C(N)=O)C(=O)[C@@]3(O)C(O)=C1C2=O [Minocycline],0.8 µg/mL,,38 mg q.d.
CN(C)[C@@H]1C(O)=C(C(N)=O)C(=O)[C@@]2(O)C(O)=C3C(=O)c4c(O)cccc4[C@@](C)(O)[C@H]3C[C@@H]12 [Tetracycline],0.5 µg/mL,,60 mg q.d.
